# Laboratory results from US6403594B1, “Benzopyran derivatives” (Recordati, S.A. Chemical and Pharmaceutical Company, priority 1999, dated 2002).
# How the values were obtained:
# [1] = molecular target: T1, α1d-adrenoceptor (recombinant) (Homo sapiens, UniProt P25100); test: Radioligand binding, cloned α1d-adrenoceptor ([3H]prazosin); conditions: read-out: Affinity for recombinant α1d-adrenoceptor, cloned receptors (Ki)
# T1 sequence (P25100 1-572): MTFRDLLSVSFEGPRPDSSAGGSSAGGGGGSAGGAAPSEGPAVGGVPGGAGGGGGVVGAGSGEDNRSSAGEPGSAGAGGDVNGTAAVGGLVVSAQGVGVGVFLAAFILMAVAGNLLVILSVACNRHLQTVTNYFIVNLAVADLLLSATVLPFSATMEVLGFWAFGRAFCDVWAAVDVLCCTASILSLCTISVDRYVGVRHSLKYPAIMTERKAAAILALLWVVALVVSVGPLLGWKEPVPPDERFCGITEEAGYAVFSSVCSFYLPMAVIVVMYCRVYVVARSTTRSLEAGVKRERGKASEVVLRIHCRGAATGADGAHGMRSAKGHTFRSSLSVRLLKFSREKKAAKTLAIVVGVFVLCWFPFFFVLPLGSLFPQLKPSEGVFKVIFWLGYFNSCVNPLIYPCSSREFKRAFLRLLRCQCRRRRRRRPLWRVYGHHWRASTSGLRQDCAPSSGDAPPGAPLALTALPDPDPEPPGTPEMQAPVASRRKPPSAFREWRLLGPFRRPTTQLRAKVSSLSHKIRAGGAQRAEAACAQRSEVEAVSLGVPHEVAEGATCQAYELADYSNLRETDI
# [2] = molecular target: T2, α1L adrenoceptor (Oryctolagus cuniculus, UniProt O02824); test: Functional antagonism of noradrenaline-induced contractions of rabbit aorta pretreated with chloroethylclonidine; assay type: biochemical; conditions: NA-induced contractions of rabbit aorta pretreated with chloroethylclonidine
# T2 sequence (O02824 1-466): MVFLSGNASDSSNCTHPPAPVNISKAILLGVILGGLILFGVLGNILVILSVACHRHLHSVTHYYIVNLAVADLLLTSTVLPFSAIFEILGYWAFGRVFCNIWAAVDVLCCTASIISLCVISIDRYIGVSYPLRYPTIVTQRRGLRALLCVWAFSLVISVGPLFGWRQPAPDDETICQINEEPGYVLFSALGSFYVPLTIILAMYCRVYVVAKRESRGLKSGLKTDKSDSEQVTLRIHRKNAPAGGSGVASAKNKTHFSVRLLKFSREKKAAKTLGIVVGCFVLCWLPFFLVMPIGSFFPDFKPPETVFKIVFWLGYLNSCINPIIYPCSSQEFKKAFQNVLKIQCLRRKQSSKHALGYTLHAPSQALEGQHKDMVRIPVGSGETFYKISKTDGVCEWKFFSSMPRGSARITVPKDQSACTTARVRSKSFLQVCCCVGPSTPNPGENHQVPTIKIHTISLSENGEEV
# Procedure: Adult male New Zealand rabbits were sacrificed by cervical dislocation. The aorta was removed, placed in Krebs-Henseleit buffer and dissected free of adhering tissue. […] Desmethylimipramine (0.1 μm) and corticosterone (1 μM) to block neuronal and extraneuronal uptake of NA, (±)-propranol (1 μM) to block β adrenoceptors and yohimbine (0.1 μM) to block α2 adrenoceptors, were added to the buffer.
# The preparations were allowed to equilibrate for 60 minutes and then primed every thirty minutes with 10 μM NA for three times. The aortic rings were then incubated with the alkylating agent chloroethylclonidine (5×10^−5 M) for 30 minutes and then washed extensively three times (in 0.5 hours) before constructing the NA-concentration/response curve. After washout of NA and re-equilibration of the tissue (45 minutes), the drug to be tested was added and, after 30 minutes, a second NA-cumulative-concentration/response curve constructed.
# Each antagonist concentration was tested using 2-3 aortic rings from different rabbits.
# Dose ratios (i.e., the ratio between the concentrations of NA required to produce half-maximal response in the presence and in the absence of the test antagonist) were calculated for each concentration of the compounds. The logarithm of these dose ratio-1 was plotted against the logarithm of the compound concentrations (Schild plot) to evaluate the affinity constant Kb.
# When only one or two concentrations of the test compounds were utilised, the apparent Kb value was calculated using the formula: Kb=[B]/(DOSE RATIO-1), where B is the antagonist concentration.
# [3] = test system: diastolic blood pressure; test: Lowering of diastolic blood pressure in anaesthetised dogs after i.v. administration; assay type: in vivo, dog
# Procedure: The experiments were performed according to the method of Imagawa J. et al., J. Pharmacol. Methods 22: 103-111, 1989, with substantial modifications, as follows: adult male beagle dogs, weighing 8-10 kg, were anaesthetised with pentobarbital sodium (30 mg/kg i.v. and 2 mg/kg/h i.v.), intubated and spontaneously ventilated with room air. In order to monitor systemic blood pressure (BP), a polyethylene (PE) catheter was introduced into the aortic arch through the left femoral artery. A collateral of the left femoral vein was cannulated for infusion of anaesthetic, and the right femoral vein was cannulated for administration of compounds. For intra-arterial (i.a.) injection of noradrenaline (NA), a PE catheter was introduced into the lower portion of the abdominal aorta via the right external iliac artery. Through such procedure, NA was selectively distributed to the lower urinary tract. A paramedian vertical suprapubic incision extending from the base of the pelvis to the mid-abdominal region was made and the bladder and prostate were exposed. The bladder was manually emptied with a syringe. Prostatic urethral pressure was monitored with a Mikro-tip catheter (5F) introduced into the bladder via the external urethral meatus, and withdrawn until the pressure transducer was positioned in the prostatic region of the urethra. A ligature was secured between the neck of the bladder and urethra to isolate the response of the latter and to avoid any interaction with the bladder. Another ligature was put around the Mikro-tip catheter at the external meatus, to secure the catheter itself. After a stabilising period following the surgical procedure (30 minutes), in which arterial and prostatic urethral pressure were continuously monitored as basal values, i.a. administration of NA was made at intervals of 20 minutes. The doses of NA chosen were such to produce an increase of at least 100% in urethral pressure. The test compounds were administered i.v. in a cumulative manner with intervals of 15-20 minutes between administrations. I.a. injections of NA were repeated 5 minutes after every dosing of test compound with intervals of about 10 minutes between stimulations. In order to compare the effects of the administered compound, dose/response curves (log dose transformation) were constructed by computing, at the peak effect, the percent decrease in diastolic blood pressure and the percent inhibition of the increase in urethral pressure induced by NA.
SMILES,Ki [1],"Functional affinity for the α1L adrenoceptor subtype, pKb [2]",DBP ED25: active dose lowering diastolic blood pressure by 25% [3]
"COc1ccc(Cl)cc1N1CCN(CCCNC(=O)c2cccc3c(=O)c(C)c(C(N)=O)oc23)CC1 [Example 1, 2-Carbamoyl-8-{3-[4-(5-chloro-2-methoxyphenyl)-1-piperazinyl]-propylcarbamoyl}-3-methyl-4-oxo-4H-1-benzopyran]",57.4 nM,8.27,2.769 mg/kg
"CCOC(=O)c1oc2c(C(=O)NCCCN3CCN(c4cc(Cl)ccc4OC)CC3)cccc2c(=O)c1C [Example 4, 2-Ethoxycarbonyl-8-{3-[4-(5-chloro-2-methoxyphenyl)-1-piperazinyl]-propylcarbamoyl}-3-methyl-4-oxo-4H-1-benzopyran]",2.75 nM,8.47,0.1633 mg/kg
